Results reported in ChEMBL document CHEMBL1150724, “In vitro antiviral activity of dammar resin triterpenoids” (J Nat Prod, 1987).
Converted amounts (≈) assume the structure as drawn.

Assays:
Human alphaherpesvirus 1 = assay: Antiviral activity against HSV1 MacIntyre replication in african green monkey Vero cells assessed as inhibition of virus-induced cytopathic effect after 48 hrs; assay type: functional, organism-based; details: Human alphaherpesvirus 1, MacIntyre
Human alphaherpesvirus 2 = assay: Antiviral activity against HSV2 MS replication infected in african green monkey Vero cells assessed as inhibition of virus-induced cytopathic effect after 48 hrs; assay type: functional, organism-based; details: Human alphaherpesvirus 2, MS

Q: What does the source list for C=C(C)[C@@H]1CC[C@]2(C)[C@H](CC[C@@H]3[C@@H]([C@@](C)(O)CCC=C(C)C)CC[C@]32C)[C@@]1(C)CCC(=O)O [DAMMARENOLIC ACID]?
A: IC50 (Human alphaherpesvirus 1): 3 µg/mL (≈ 6.54 µM); IC50 (Human alphaherpesvirus 2): 2 µg/mL (≈ 4.36 µM)

Q: CC(C)=CCC[C@](C)(O)[C@H]1CC[C@]2(C)[C@@H]1CC[C@@H]1[C@@]3(C)CC[C@H](O)C(C)(C)[C@@H]3CC[C@]12C was tested. Which IC50 (Human alphaherpesvirus 1) did it give?
A: Its IC50 is 7 µg/mL (≈ 15.7 µM).

Q: And the IC50 (Human alphaherpesvirus 2)?
A: The IC50 was 7 µg/mL (≈ 15.7 µM).

Q: What does the source list for C[C@H]1[C@H](C)CC[C@]2(C(=O)O)CC[C@]3(C)C(=CC[C@@H]4[C@@]5(C)CCC(=O)C(C)(C)[C@@H]5CC[C@]43C)[C@H]12 [URSONIC ACID]?
A: IC50 (Human alphaherpesvirus 1): 2.5 µg/mL (≈ 5.5 µM); IC50 (Human alphaherpesvirus 2): 8 µg/mL (≈ 17.6 µM)

Q: CC1(C)CC[C@@]23CC[C@]4(C)[C@@](OC2=O)([C@@H]3C1)[C@@H](O)C[C@@H]1[C@@]2(C)CCC(=O)C(C)(C)[C@@H]2CC[C@]14C was tested. Which IC50 (Human alphaherpesvirus 1) did it give?
A: The IC50 was 5 µg/mL (≈ 10.6 µM).

Q: And the IC50 (Human alphaherpesvirus 2)?
A: Its IC50 is 5 µg/mL (≈ 10.6 µM).

Q: Which results are given for CC(C)(O)[C@H]1CC[C@@]2(C)C1CC[C@]1(C)[C@@H]2CC[C@@H]2[C@@]3(C)CCC(=O)C(C)(C)[C@@H]3CC[C@]21C (stereo partly drawn) [HYDROXYHOPANONE]?
A: IC50 (Human alphaherpesvirus 1): 7 µg/mL (≈ 15.8 µM); IC50 (Human alphaherpesvirus 2): 5 µg/mL (≈ 11.3 µM)

Q: C=C(C)[C@@H]1CC[C@]2(C)[C@H](CC[C@@H]3[C@@H]([C@]4(C)CC[C@@H](C(C)(C)O)O4)CC[C@]32C)[C@@]1(C)CCC(=O)O [EICHLERIANIC ACID] was tested. Which IC50 (Human alphaherpesvirus 1) did it give?
A: The IC50 was 7 µg/mL (≈ 14.7 µM).

Q: What about the IC50 (Human alphaherpesvirus 2) of the same compound?
A: Its IC50 is 8 µg/mL (≈ 16.9 µM).

Q: C=C(C)[C@@H]1CC[C@]2(C)[C@H](CC[C@@H]3[C@@H]([C@]4(C)CC[C@H](C(C)(C)O)O4)CC[C@]32C)[C@@]1(C)CCC(=O)O [SHOREIC ACID] was tested. Which IC50 (Human alphaherpesvirus 1) did it give?
A: Its IC50 is 7 µg/mL (≈ 14.7 µM).

Q: And the IC50 (Human alphaherpesvirus 2)?
A: Its IC50 is 8 µg/mL (≈ 16.9 µM).

Q: What does the source list for C=C(CCC=C(C)C)[C@H]1CC[C@]2(C)[C@@H]1CC[C@@H]1[C@@]3(C)CC[C@H](O)C(C)(C)[C@@H]3CC[C@]12C [DAMMARADIENOL]?
A: IC50 (Human alphaherpesvirus 1): 2.5 µg/mL (≈ 5.86 µM); IC50 (Human alphaherpesvirus 2): 3 µg/mL (≈ 7.03 µM)

Q: With CC(C)=CCC[C@@](C)(O)[C@H]1CC[C@]2(C)[C@@H]1CC[C@@H]1[C@@]3(C)CCC(=O)C(C)(C)[C@@H]3CC[C@]12C as the compound, how does the IC50 (Human alphaherpesvirus 1) read?
A: The IC50 was 2 µg/mL (≈ 4.52 µM).

Q: What about the IC50 (Human alphaherpesvirus 2) of the same compound?
A: The IC50 was 5 µg/mL (≈ 11.3 µM).
